Tests used:
[1] = tested on: Human coronary artery endothelial (HCAE) cells; test: Migration of HCAE cells through fibronectin-coated insert toward PDGF; assay type: cell-based; settings: PDGF 10 ng/ml, 22 h
Protocol: (§1) The design of experiments to measure invasion and migration of endothelial cells toward the angiogenic factor PDGF (platelet-derived growth factor-BB) is shown in FIGS. 7A and 8A respectively. The standard assay used 5×10^4 cells added to the top of the insert in 250 μl of medium. The lower portion of the apparatus contained 750 μl of medium, plus or minus PDGF. […] Transmembrane cell invasion and migration assays were performed using BD FluoroBlok inserts coated with BD Matrigel Matrix (a biologically active basement membrane preparation) or with fibronectin (BD Bioscience, Bedford, Mass.), respectively. […] PDGF [10 ng/ml] (R&D System, Minneapolis, Minn. (PDGF) or medium alone (CTR) were added to the lower chamber of the insert plate as a chemoattractant. The cells were allowed to invade or migrate for 22 hours. Cells were labeled post invasion or post migration with Calcein AM (4 μg/ml) and the fluorescence of the cells that invaded through the BD Matrigel Matrix or migrated to the underside of the insert membrane was measured using a plate reader at 485 nm (excitation) and 530 nm (emission).

[2] = tested on: Human coronary artery endothelial (HCAE) cells; test: Invasion of HCAE cells through Matrigel toward PDGF; assay type: cell-based; settings: PDGF 10 ng/ml, 22 h
Protocol: as §1

[3] = tested on: Human coronary artery endothelial (HCAE) cells; test: Invasion of HCAE cells through Matrigel toward bFGF; assay type: cell-based; settings: bFGF 10 ng/ml, 22 h
Protocol: (§2) The design of experiments to measure invasion and migration of endothelial cells toward the angiogenic factor bFGF (basic fibroblast growth factor) is shown in FIGS. 5A and 6A, respectively. The standard assay used 5×10^4 cells added to the top of the insert in 250 μl of medium. The lower portion of the apparatus contained 750 μl of medium, plus or minus bFGF. […] Transmembrane cell invasion and migration assays were performed using BD FluoroBlok (BD Bioscience, Bedford, Mass.) inserts coated with BD Matrigel Matrix (a biologically active basement membrane preparation) or with fibronectin, respectively. […] (R&D System, Minneapolis, Minn.) (FGF) or medium alone (CTR) were added to the lower chamber of the insert plate as a chemoattractant. The cells were allowed to invade or migrate for 22 hours. Cells were labeled post invasion or post migration with Calcein AM (4 μg/ml) and the fluorescence of the cells that invaded through the BD Matrigel Matrix or migrated to the underside of the insert membrane was measured using a plate reader at 485 nm (excitation) and 530 nm (emission).

[4] = tested on: Human coronary artery endothelial (HCAE) cells; test: Migration of HCAE cells through fibronectin-coated insert toward bFGF; assay type: cell-based; settings: bFGF 10 ng/ml, 22 h
Protocol: as §2

thrombin receptor [5] = settings: cited from earlier work
thrombin receptor [6] = settings: cited from earlier work; remark: listed apart in the source
AC-23 = test: Binding of biotin-conjugated thrombin to complementary peptide AC-23
Sequence of AC-23 (as listed by the source): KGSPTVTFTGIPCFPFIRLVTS

23C53 = test: Binding of biotin-conjugated thrombin to complementary peptide 23C53
Sequence of 23C53 (as listed by the source): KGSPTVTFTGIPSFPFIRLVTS

For PDGF, the “Effect of PDGF on endothelial cell migration compared to control (CTR)” value [1] was “no effect” and the “Effect of PDGF on endothelial cell invasion compared to control medium without PDGF” value [2] was “no effect”.
For “bFGF: angiogenic factor basic fibroblast growth factor (R&D System)”, the “bFGF-induced endothelial cell invasion as % of invasion with control medium (CTR)” value [3] was ~170% and the “Increase of endothelial cell migration by bFGF compared to control medium not containing bFGF” value [4] was ~40%.
In the case of “p508-530: stimulatory thrombin polypeptide derivative containing fibronectin- and serine protease-homologous domains, residues 508 to 530 of human thrombin”, the “Binding to thrombin receptors” value (thrombin receptor [5]) is listed as “bind to thrombin receptors with high-affinity” and the “Induction of mitogenesis / mitogenic signals” value (thrombin receptor [6]) is listed as “substitute for DIP-alpha-thrombin as an initiator of receptor occupancy-related mitogenic signals”.
For “p519-530: intermediate thrombin peptide derivative, residues 519-530 of human thrombin (QPSVLQVVNLPI; UniProt P00734 519-530, looked up, fragment)”, the “Induction of mitogenesis / mitogenic signals” value (thrombin receptor [6]) is given as “retains the ability to mediate mitogenesis but to a much lesser degree than p508-530”.
For thrombin, the “Specific binding of biotin-conjugated thrombin to AC23” value (AC-23) was “bind specifically” and the “Specific binding of biotin-conjugated thrombin to 23C53” value (23C53) was “bind specifically”.

Source: US20100330028A1, “COMBINATION THERAPY FOR CHRONIC DERMAL ULCERS” (The Board of Regents THe Universityof Texas System, priority 2007, published 2010)
